In patent publication US20230391772A1, “METHODS AND COMPOSITIONS FOR TARGETED PROTEIN DEGRADATION” (Ranok Therapeutics (Hangzhou) Co. Ltd., priority 2020, published 2023):

Columns and labels:
[1] = system: NCI-H358 human non-small cell lung cancer; test: NCI-H358 CCK-8 proliferation assay; assay type: cell-based; details: NCI-H358 cells, 72 hr
Procedure, shortened: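 CCK-8 absorbance readout; % inhibition = 100 − (compound − blank)/(DMSO − blank) × 100, blank = medium + DMSO, no cells. Dose range 20 μM down to 1.02 nM, 3-fold steps. KRAS(G12C) copy number: MIA PaCa-2 2; NCI-H358 1; NCI-H23 1.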

HSP90a protein = molecular target: T1, HSP90a protein (Homo sapiens, UniProt P07900); test: HSP90α-binding fluorescent polarization (FP) assay, BODIPY-labeled RNK04010 probe; details: FP competition with RNK04010 (BODIPY-labeled), 5 nM, 300 min at 25° C.
T1 construct: purchased BPS Bioscience 50298
Procedure, shortened: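 Polarization signal was read after equilibration at 25° C, for 120 min with FITC-geldanamycin or 300 min with the BODIPY-tagged RNK04010 probe, each at 5 nM final. Compounds spanned 20 μM down to 5.2 nM in 2.5-fold dilutions against the HSP90a N-terminal domain.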

Row | Structure (SMILES) | EC50 [1] | IC50 (HSP90a protein)
1 | C=CC(=O)N1CCN(c2nc(NCCC(=O)NCc3ccc(-n4c(O)nnc4-c4cc(C(C)C)c(O)cc4O)cc3C(F)(F)F)nc3c2CCN(c2cc(O)cc4ccccc24)C3)CC1 [Compound 36, 3-((4-(4-acryloylpiperazin-1-yl)-7-(3-hydroxynaphthalen-1-yl)-5,6,7,8-tetrahydropyrido[3,4-d]pyrimidin-2-yl)amino)-N-(4-(3-(2,4-dihydroxy-5-isopropylphenyl)-5-hydroxy-4H-1,2,4-triazol-4-yl)-2-(trifluoromethyl)benzyl)propanamide, trifluoroacetic acid] | > 1000 nM | 100 to 1000 nM
2 | C=CC(=O)N1CCN(c2nc(NCCC(=O)NCCOCCOCCOc3ccc(-n4c(O)nnc4-c4cc(C(C)C)c(O)cc4O)cc3)nc3c2CCN(c2cccc4ccccc24)C3)C[C@@H]1CC#N [Compound 92, (S)-3-((4-(4-acryloyl-3-(cyanomethyl)piperazin-1-yl)-7-(naphthalen-1-yl)-5,6,7,8-tetrahydropyrido[3,4-d]pyrimidin-2-yl)amino)-N-(2-(2-(2-(4-(3-(2,4-dihydroxy-5-isopropylphenyl)-5-hydroxy-4H-1,2,4-triazol-4-yl)phenoxy)ethoxy)ethoxy)ethyl)propanamide, trifluoroacetic acid] | > 1000 nM | < 100 nM
3 | CC(=O)N1CCN(c2nc(NCCC(=O)N3CCN(Cc4ccc(-n5c(O)nnc5-c5cc(C(C)C)c(O)cc5O)cc4)CC3)nc3c2CCN(c2cc(O)cc4ccccc24)C3)CC1 [Compound 26, 3-((4-(4-acetylpiperazin-1-yl)-7-(3-hydroxynaphthalen-1-yl)-5,6,7,8-tetrahydropyrido[3,4-d]pyrimidin-2-yl)amino)-1-(4-(4-(3-(2,4-dihydroxy-5-isopropylphenyl)-5-hydroxy-4H-1,2,4-triazol-4-yl)benzyl)piperazin-1-yl)propan-1-one, trifluoroacetic acid] | > 1000 nM | 100 to 1000 nM
4 | CC(=O)N1CCN(c2nc(NCCC(=O)NCCOCCOc3ccc(-n4c(O)nnc4-c4cc(C(C)C)c(O)cc4O)cc3)nc3c2CCN(c2cc(O)cc4ccccc24)C3)CC1 [Compound 70, 3-((4-(4-acetylpiperazin-1-yl)-7-(3-hydroxynaphthalen-1-yl)-5,6,7,8-tetrahydropyrido[3,4-d]pyrimidin-2-yl)amino)-N-(2-(2-(4-(3-(2,4-dihydroxy-5-isopropylphenyl)-5-hydroxy-4H-1,2,4-triazol-4-yl)phenoxy)ethoxy)ethyl)propanamide, trifluoroacetic acid] | > 1000 nM | 100 to 1000 nM
5 | C=CC(=O)N1CCN(c2nc(NCCC(=O)NCc3ccc(-n4c(O)nnc4-c4cc(CCC)c(O)cc4O)cc3)nc3c2CCN(c2cccc4cccc(Cl)c24)C3)C[C@H]1CC#N [Compound 89, (R)-3-((4-(4-acryloyl-3-(cyanomethyl)piperazin-1-yl)-7-(8-chloronaphthalen-1-yl)-5,6,7,8-tetrahydropyrido[3,4-d]pyrimidin-2-yl)amino)-N-(4-(3-(2,4-dihydroxy-5-propylphenyl)-5-hydroxy-4H-1,2,4-triazol-4-yl)benzyl)propenamide] | > 1000 nM | > 1000 nM
6 | CCC(=O)N1CCN(c2nc(NCCC(=O)N3CCC(CN4CCN(Cc5ccc(-n6c(C(=O)NC(CC)CC)nnc6-c6cc(CC)c(O)cc6O)cc5)CC4)CC3)nc3c2CCN(c2cc(O)cc4ccccc24)C3)CC1 [Compound 117, 5-(5-ethyl-2,4-dihydroxyphenyl)-4-(4-((4-((1-(3-((7-(3-hydroxynaphthalen-1-yl)-4-(4-propionylpiperazin-1-yl)-5,6,7,8-tetrahydropyrido[3,4-d]pyrimidin-2-yl)amino)propanoyl)piperidin-4-yl)methyl)piperazin-1-yl)methyl)phenyl)-N-(pentan-3-yl)-4H-1,2,4-triazole-3-carboxamide, trifluoroacetic acid] | 100 to 1000 nM | 100 to 1000 nM
7 | CC(=O)N1CCN(c2nc(NCCC(=O)NCc3ccc(-n4c(O)nnc4-c4cc(C(C)C)c(O)cc4O)cc3F)nc3c2CCN(c2cc(O)cc4ccccc24)C3)CC1 [Compound 49, 3-((4-(4-acetylpiperazin-1-yl)-7-(3-hydroxynaphthalen-1-yl)-5,6,7,8-tetrahydropyrido[3,4-d]pyrimidin-2-yl)amino)-N-(4-(3-(2,4-dihydroxy-5-isopropylphenyl)-5-hydroxy-4H-1,2,4-triazol-4-yl)-2-fluorobenzyl)propanamide, trifluoroacetic acid] | > 1000 nM | 100 to 1000 nM
8 | C=CC(=O)N1CCN(c2nc(NCCC(=O)N3CCN(Cc4ccc5c(c4F)CN(C(=O)c4cc(C)c(O)cc4O)C5)CC3)nc3c2CCN(c2cc(O)cc4ccccc24)C3)CC1 [Compound 107, 1-(4-(2-((3-(4-((2-(2,4-dihydroxy-5-methylbenzoyl)-4-fluoroisoindolin-5-yl)methyl)piperazin-1-yl)-3-oxopropyl)amino)-7-(3-hydroxynaphthalen-1-yl)-5,6,7,8-tetrahydropyrido[3,4-d]pyrimidin-4-yl)piperazin-1-yl)prop-2-en-1-one, trifluoroacetic acid] | > 1000 nM | > 1000 nM
9 | CC(=O)N1CCN(c2nc(NCCC(=O)N3CCN(Cc4ccc(CN(C)Cc5ccc(-n6c(C(=O)NCC(F)(F)F)nnc6-c6cc(C(C)C)c(O)cc6O)cc5)cc4)CC3)nc3c2CCN(c2cccc4ccccc24)C3)C[C@H]1CC#N [Compound 124, (R)-4-(4-(((4-((4-(3-((4-(4-acetyl-3-(cyanomethyl)piperazin-1-yl)-7-(naphthalen-1-yl)-5,6,7,8-tetrahydropyrido[3,4-d]pyrimidin-2-yl)amino)propanoyl)piperazin-1-yl)methyl)benzyl)(methyl)amino)methyl)phenyl)-5-(2,4-dihydroxy-5-isopropylphenyl)-N-(2,2,2-trifluoroethyl)-4H-1,2,4-triazole-3-carboxamide, trifluoroacetic acid] | 100 to 1000 nM | 100 to 1000 nM
10 | CC(=O)N1CCN(c2nc(NCCC(=O)NCc3ccc(-n4c(O)nnc4-c4cc(C)c(O)cc4O)cc3)nc3c2CCN(c2cc(O)cc4ccccc24)C3)CC1 [Compound 44, 3-((4-(4-acetylpiperazin-1-yl)-7-(3-hydroxynaphthalen-1-yl)-5,6,7,8-tetrahydropyrido[3,4-d]pyrimidin-2-yl)amino)-N-(4-(3-(2,4-dihydroxy-5-methylphenyl)-5-hydroxy-4H-1,2,4-triazol-4-yl)benzyl)propanamide, trifluoroacetic acid] | > 1000 nM | > 1000 nM
11 | C=CC(=O)N1CCN(c2nc(NCCC(=O)NCCOc3ccc(-n4c(O)nnc4-c4cc(C(C)C)c(O)cc4O)cc3)nc3c2CCN(c2cc(O)cc4ccccc24)C3)CC1 [Compound 3, 3-((4-(4-acryloylpiperazin-1-yl)-7-(3-hydroxynaphthalen-1-yl)-5,6,7,8-tetrahydropyrido[3,4-d]pyrimidin-2-yl)amino)-N-(2-(4-(3-(2,4-dihydroxy-5-isopropylphenyl)-5-hydroxy-4H-1,2,4-triazol-4-yl)phenoxy)ethyl)propanamide, trifluoroacetic acid] | > 1000 nM | 100 to 1000 nM
12 | C=CC(=O)N1CCN(c2nc(NCCC(=O)NCc3ccc(-n4c(O)nnc4-c4cc(C(C)C)c(O)cc4O)cc3)nc3c2CCN(c2cc(O)cc4ccccc24)C3)CC1 [Compound 7, 3-((4-(4-acryloylpiperazin-1-yl)-7-(3-hydroxynaphthalen-1-yl)-5,6,7,8-tetrahydropyrido[3,4-d]pyrimidin-2-yl)amino)-N-(4-(3-(2,4-dihydroxy-5-isopropylphenyl)-5-hydroxy-4H-1,2,4-triazol-4-yl)benzyl)propanamide, trifluoroacetic acid] | > 1000 nM | 100 to 1000 nM
13 | C=C(F)C(=O)N1CCN(c2nc(OC[C@@H]3CCCN3C(=O)COc3ccc(Nc4cc(-n5nc(C(F)(F)F)c6c5CC(C)(C)CC6=O)ccc4C(N)=O)cc3)nc3c2CCN(c2cccc4cccc(Cl)c24)C3)C[C@@H]1CC#N [Compound 164, 2-((4-(2-((S)-2-(((7-(8-chloronaphthalen-1-yl)-4-((S)-3-(cyanomethyl)-4-(2-fluoroacryloyl)piperazin-1-yl)-5,6,7,8-tetrahydropyrido[3,4-d]pyrimidin-2-yl)oxy)methyl)pyrrolidin-1-yl)-2-oxoethoxy)phenyl)amino)-4-(6,6-dimethyl-4-oxo-3-(trifluoromethyl)-4,5,6,7-tetrahydro-1H-indazol-1-yl)benzamide] | > 1000 nM | > 1000 nM
14 | C=CC(=O)N1CCN(c2nc(NCCC(=O)NCc3ccc(-n4c(O)nnc4-c4cc(C(C)C)c(O)cc4O)cc3)nc3c2CCN(c2cccc4ccccc24)C3)C[C@H]1CC#N [Compound 91, (R)-3-((4-(4-acryloyl-3-(cyanomethyl)piperazin-1-yl)-7-(naphthalen-1-yl)-5,6,7,8-tetrahydropyrido[3,4-d]pyrimidin-2-yl)amino)-N-(4-(3-(2,4-dihydroxy-5-isopropylphenyl)-5-hydroxy-4H-1,2,4-triazol-4-yl)benzyl)propanamide, trifluoroacetic acid] | > 1000 nM | > 1000 nM
15 | C=CC(=O)N1CCN(c2nc(NCCC(=O)N3CCN(c4ccc(-n5c(O)nnc5-c5cc(C(C)C)c(O)cc5O)cc4)CC3)nc3c2CCN(c2cccc4ccccc24)C3)C[C@H]1CC#N [Compound 90, (R)-2-(1-acryloyl-4-(2-((3-(4-(4-(3-(2,4-dihydroxy-5-isopropylphenyl)-5-hydroxy-4H-1,2,4-triazol-4-yl)phenyl)piperazin-1-yl)-3-oxopropyl)amino)-7-(naphthalen-1-yl)-5,6,7,8-tetrahydropyrido[3,4-d]pyrimidin-4-yl)piperazin-2-yl)acetonitrile, trifluoroacetic acid] | > 1000 nM | 100 to 1000 nM
